Laboratory results taken from patent publication US20180064738A1, “METHOD OF TREATING INFECTIONS USING SILOXANE DERIVATIVES” (priority 2014, published 2018).

Assays:
[1] = tested on: human head and neck cancer cell line (HTB41/-43); assay: Intratumoral injection of head and neck cancer tumors in nude mice; type: in vivo; details: tumors in the abdomen injected, over 10 days; K-21 at 5% by weight
Description: Nude mice were injected with human head and neck cancer cell line (HTB41/-43). […] The size of the sham injected tumors grew most rapidly over 10 days.

IL-1 = assay: Flow cytometry of skin cells for the inflammatory cytokine IL-1; type: in vivo, C57/BL6 mice; details: Group II, DMBA alone
Description: These animals received no other treatment.
Flow cytometry analyses: The skin and some associated soft tissues on the backs of all mice were excised. Representative portions of the skin and dermis were prepared for flow cytometry analysis by being divided into single cell suspensins using a 100 μm cell strainer followed by centrifugation (1500 rpm, 10 mm). Analysis of cells for detection of the inflammatory cytokine IL-1 was performed by fixing, permeabilizing, and staining of cells and running flow cyctopmetry using a FACS Calibur BD Flow Cytometer.

shaved skin of mice = assay: Topical irritation and DMBA skin tumor study in mice; details: Group II
Description: K-21 was dissolved in acetone to enhance its ability to wet the shaved skin on the backs of experimental mice. Mice in the positive control group were treated with a topical chemical carcinogenic agent, dimethybena(α)anthracene (DMBA), dissolved in acetone.
Thirty adult C57/BL6 mice were randomly divided into three groups of ten animals each to evaluate the topical irritation and potential anti-inflammatory properties of K-21. The hair on the back of all mice were shaved off with electric clippers.
Group 1 animals received topical application of K-21 (100 μg/100 μL) in acetone twice a week for two weeks (days 3, 6, 9, and 12) over the shaved area. These animals received no other treatment. Group II mice received a topical single dose of DMBA (100 μg/100 μL) in acetone over the shaved skin on the animals back on day 7. Group III animals received the same treatment as Group II mice on day 7 plus they were treated with topical K-21, twice a week before (days 3, 6) and one week after (days 9 and 12) a single DMBA application on day 7.
All animals were weighed daily, before and during the study to compare the weight gains of animals in all three groups. The behavior (eating, drinking, etc.) was monitored on a daily basis to determine if there was any gross skin irritation or initiation of tumors. […]

With N.N.[Cl][Pt][Cl] [Cisplatin] the tumor growth [1] was “grew the least”.

Cc1c2ccccc2c(C)c2c1ccc1ccccc12 [DMBA, dimethybena(α)anthracene] was tested, and the “IL-1 positive cells of the total number of cells” value (IL-1) was 6%, the tumor formation (shaved skin of mice; single topical dose of DMBA on day 7, sacrificed day 14) was “Tumors formed in all ten” and the tumor diameter (shaved skin of mice; single topical dose of DMBA, day 14) was “about 0.5 cm”.
